In ChEMBL document CHEMBL1140786, “Synthesis of 4,5,6,7-tetrahydrothieno[3,2-c]pyridines and comparison with their isosteric 1,2,3,4-tetrahydroisoquinolines as inhibitors of phenylethanolamine N-methyltransferase” (Bioorg Med Chem, 2008):

Legend:
[1] = molecular target: Alpha-2 adrenergic receptor (Rattus norvegicus); assay: Displacement of [3H]clonidine from adrenergic alpha-2 receptor in Sprague-Dawley rat cortex
Homo sapiens = species on record: Homo sapiens; assay: Selectivity of Ki for human PNMT over Ki for rat alpha2 adrenoceptor
[2] = molecular target: T1, Phenylethanolamine N-methyltransferase (Homo sapiens, UniProt P11086); assay: Inhibition of human PNMT by radiochemical assay
T1 sequence (P11086 whole entry): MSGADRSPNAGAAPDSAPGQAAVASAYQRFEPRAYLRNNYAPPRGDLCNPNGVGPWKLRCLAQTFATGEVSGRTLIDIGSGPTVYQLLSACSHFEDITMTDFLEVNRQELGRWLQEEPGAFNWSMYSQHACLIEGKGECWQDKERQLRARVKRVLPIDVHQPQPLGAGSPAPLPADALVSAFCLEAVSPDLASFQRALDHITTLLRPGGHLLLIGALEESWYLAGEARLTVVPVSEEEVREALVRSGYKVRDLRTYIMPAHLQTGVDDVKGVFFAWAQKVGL

[3] = molecular target: Phenylethanolamine N-methyltransferase (Homo sapiens) (UniProt P11086); assay: Inhibition of human PNMT by radiochemical assay

Structure (SMILES) | Ki [1] | other results
O=[N+]([O-])C1=CC2CNCCC2S1 (stereo not drawn) | 18 µM | 
NCc1ccsc1 | 32 µM | Ratio Ki (Homo sapiens): 0.29; Ki [2]: 110 µM
NC(=O)c1ccc2c(c1)CNCC2 |  | Ki [3]: 72 µM
N#Cc1cc2c(s1)CCNC2 | 16 µM | 
CC(=O)c1cc2c(s1)CCNC2 | 9.8 µM | 
CC1CC2SC=CC2CN1 (stereo not drawn) | 29 µM | 
CC1Cc2ccccc2CN1 (racemic) |  | Ki [3]: 1.4 µM
NCCc1ccccc1 [PHENETHYLAMINE] |  | Ki [3]: 220 µM
BrC1=CC2CNCCC2S1 (stereo not drawn) | 0.38 µM | 
FC(F)(F)C1CC2SC=CC2CN1 (stereo not drawn) | 1500 µM | 
FC(F)(F)C1Cc2sc(Br)cc2CN1 (stereo not drawn) | > 1000 µM | 
c1ccc2c(c1)CCNC2 [1,2,3,4-TETRAHYDROISOQUINOLINE] |  | Ki [3]: 5 µM
CC1Cc2sc3ccccc3c2CN1 (racemic) |  | Ki [3]: 0.067 µM
CC(=O)c1ccc2c(c1)CNCC2 |  | Ki [3]: 5 µM
Cc1cc2c(s1)CCNC2 | 0.49 µM | 
CC1Cc2sc(Br)cc2CN1 (stereo not drawn) | 2.3 µM | 
NCc1cccs1 | 27 µM | Ratio Ki (Homo sapiens): 0.12; Ki [2]: 450 µM
c1cc2c(s1)CCNC2 | 1.5 µM | 
C[C@H]1Cc2sc(C#N)cc2CN1 | 130 µM | 
C[C@H]1Cc2sc([N+](=O)[O-])cc2CN1 | 29 µM | 
NC(=O)c1cc2c(s1)CCNC2 | 4.1 µM | 
Cc1ccc2c(c1)CNCC2 |  | Ki [3]: 2 µM
FC(F)(F)C1Cc2sc3ccccc3c2CN1 (stereo not drawn) | > 500 µM | 
CC1Cc2ccc(Br)cc2CN1 (racemic) | 1.1 µM | 
NCCc1cccs1 | 1.2 µM | Ratio Ki (Homo sapiens): 0.004; Ki [2]: 300 µM
C[C@@H]1Cc2sc(C#N)cc2CN1 | 47 µM | 
C[C@@H]1Cc2sc([N+](=O)[O-])cc2CN1 | 13 µM | 
